Assay results reported in US20230123334A1, “AMINO LIPID COMPOUND, PREPARATION METHOD THEREFOR, AND APPLICATION THEREOF” (SHENZHEN SHENXIN BIOTECHNOLOGY CO., LTD., priority 2020, published 2023).

Key:
HEK293 cells [1] = experiment: Preliminary screening as mRNA vectors, EGFP mRNA transfection of HEK293 cells; type: cell-based; settings: HEK293 cells, 96-well plates, EGFP mRNA 50 ng per well; percentage of GFP fluorescent cells relative to total number of cells (Hoechst)
How it was run: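 Each well of HEK293 cells received 50 ng of EGFP mRNA. Efficiency was expressed as percent GFP-expressing cells over Hoechst-defined total cell number.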

HEK293 cells [2] = experiment: Preliminary screening as DNA vectors, GFP transfection of HEK293 cells; type: cell-based; settings: HEK293 cells; lipid/DOPE liposome with 75 ng plasmid DNA (psin-EGFP-IRES-Puro); number of cells expressing GFP divided by total number of nuclei (Hoechst)
How it was run: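 Lipid + DOPE liposomes (NaOAc, pH 5.6) complexed w/ 75 ng psin-EGFP-IRES-Puro, 30 min RT; added to 3-5×10^4 HEK293/well, 37° C. Hoechst 0.2 μg/mL at 20-24 h, imaged after further 20-24 h. Efficiency = GFP+ cells / total nuclei.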

SMILES	Absolute mRNA transfection efficiency in HEK293 cells (HEK293 cells [1]) [%]	Absolute DNA transfection efficiency in HEK293 cells (HEK293 cells [2]) [%]
CCCCCCCCCCCCCCCCCCSc1nc(NCCN2CCCCC2)nc(SCCCCCCCCCCCC)n1 [Compound S12S18D4]	5.1	2.6
CCCCCCCCCCCCCCCCCCNc1nc(NCCCCCCCCCCCCC)nc(NCCCN2CCOCC2)n1 [Compound N13N18D8]	0.0	0.0
CCCCCCCCCCCCNc1nc(NCCN2CCN(C)CC2)nc(N(CCCCCCCCCCCC)CCCCCCCCCCCC)n1 [N12^2N12D5]	2.2	0.5
CCCCCCCCCCCCCCCCCCSc1nc(NCCN2CCOCC2)nc(SCCCCCCCCCCCCCCCCCC)n1 [Compound S18S18D2]	0.1	0.0
CCCCCCCCCCCCCNc1nc(NCCCCCCCCC)nc(NCCCN2CCN(C)CC2)n1 [Compound N9N13D9]	2.5	0.0
CCCCCCCCCCCCCCCCSc1nc(NCCN2CCN(C)CC2)nc(SCCCCCCCCCCCC)n1 [Compound S12S16D5]	0.1	0.1
CCCCCCCCCCCCCNc1nc(NCCCCCCC)nc(NCCN(C)C)n1 [Compound N7N13D1]	0.4	1.0
CCCCCCCCNc1nc(NCCCCCCCC)nc(NCCN2CCCCC2)n1 [Compound N8N8D4]	0.2	0.0
CCCCCCCCCCCCCCCCCCNc1nc(NCCCCCCCCCCC)nc(NCCN(CC)CC)n1 [Compound N11N18D7]	4.0	1.1
CCCCCCCCCCCCCCCCNc1nc(NCCN2CCCCC2)nc(N(CCCCCCCCCCCC)CCCCCCCCCCCC)n1 [N16^2N12D4]	0.0	3.2
CCCCCCCCCCCCCCCNc1nc(NCCCN(C)C)nc(N(CCCCCCCCCCCC)CCCCCCCCCCCC)n1 [N15^2N12D6]	9.0	6.3
CCCCCCCCCCCCNc1nc(NCCCCCCCCCCCC)nc(NCCN2CCOCC2)n1 [Compound N12N12D2]	1.0	0.2
CCCCCCCCCCCCNc1nc(NCCCCCCC)nc(NCC2CCN(C)CC2)n1 [Compound N7N12D10]	0.8	1.4
CCCCCCCCCCCCCCCSc1nc(NCCCN(C)C)nc(SCCCCCCCCCCC)n1 [Compound S11S15D6]	15.4	4.8
CCCCCCCCCCCCNc1nc(NCCCCCCCCC)nc(NCCCN2CCN(C)CC2)n1 [Compound N9N12D9]	0.1	0.0
CCCCCCCCCCCNc1nc(NCCCCCC)nc(NCCN(CC)CC)n1 [Compound N6N11D7]	0.0	0.0
CCCCCCCCCCCCCCCCCCSc1nc(NCCN(CC)CC)nc(SCCCCCCCCCCCCCCC)n1 [Compound S15S18D7]	9.3	1.5
CCCCCCCCCCCCCNc1nc(NCCCCCCC)nc(NCCN2CCOCC2)n1 [Compound N7N13D2]	0.0	0.1

SMILES	Absolute mRNA transfection efficiency in HEK293 cells (HEK293 cells [1]) [%]	Absolute DNA transfection efficiency in HEK293 cells (HEK293 cells [2]) [%]
CCCCCCCCCCCCCCSc1nc(NCC2CCN(C)CC2)nc(SCCCCCCCCCC)n1 [Compound S10S14D10]	37.7	23.0
CCCCCCCCCCCCN(CCCCCCCCCCCC)c1nc(NCCCCCCC)nc(NCCCN(C)C)n1 [N7^2N12D6]	4.8	0.7
CCCCCCCCCCCCCNc1nc(NCCCCCCCCCCCCC)nc(NCCN(CC)CC)n1 [Compound N13N13D7]	1.1	0.1
CCCCCCCCCNc1nc(NCCCCCCCCC)nc(NCCN2CCN(C)CC2)n1 [Compound N9N9D5]	0.1	0.0
CCCCCCCCCCCCNc1nc(NCCCCCCCCCCC)nc(NCCCN2CCN(C)CC2)n1 [Compound N11N12D9]	0.3	0.0
CCCCCCCCCCCCN(CCCCCCCCCCCC)c1nc(NCCCCCCCC)nc(NCCN2CCOCC2)n1 [N8^2N12D2]	1.4	0.1
CCCCCCCNc1nc(NCCCCCCC)nc(NCCN2CCCC2)n1 [Compound N7N7D3]	0.0	0.0
CCCCCCCCCCCCCCCCCCNc1nc(NCCCCCCCCCCCC)nc(NCCN(CC)CC)n1 [Compound N12N18D7]	1.4	1.2
CCCCCCCCCCCNc1nc(NCCCCCCCCC)nc(NCCN2CCOCC2)n1 [Compound N9N11D2]	0.3	0.0
CCCCCCCCCCCCCNc1nc(NCCCCCCCCCCCC)nc(NCCCN2CCN(C)CC2)n1 [Compound N12N13D9]	1.8	0.3
CCCCCCCCCCCCNc1nc(NCCCCCC)nc(NCCN2CCCCC2)n1 [Compound N6N12D4]	0.0	0.0
CCCCCCCCCCCCCCCCSc1nc(NCCCN2CCN(C)CC2)nc(SCCCCCCCCCCCCCC)n1 [Compound S14S16D9]	0.0	0.0
CCCCCCCCCSc1nc(NCCN(C)C)nc(SCCCCCCCCC)n1 [Compound S9S9D1]	0.8	12.9
CCCCCCCCCCCCCCCCCCNc1nc(NCCCCCCCCCCC)nc(NCCCN2CCN(C)CC2)n1 [Compound N11N18D9]	1.7	0.0
CCCCCCCCCCCCCNc1nc(NCCCCCCCCCCC)nc(NCCCN2CCN(C)CC2)n1 [Compound N11N13D9]	7.1	0.0
CCCCCCNc1nc(NCCCCCC)nc(NCCN2CCCCC2)n1 [Compound N6N6D4]	0.1	0.0
CCCCCCCCCCCNc1nc(NCCCCCCCCC)nc(NCCN2CCN(C)CC2)n1 [Compound N9N11D5]	1.1	0.0
CCCCCCCCCCCCCCCSc1nc(NCC2CCN(C)CC2)nc(SCCCCCCCCCCCCCC)n1 [Compound S14S15D10]	0.5	0.3
